Legend:
[1] = test system: CD45+/CD34+ and CD45+/CD34- cell populations in peripheral blood; assay: Flow cytometry of peripheral blood mononuclear cells after PTH or G-CSF in healthy mice; assay type: in vivo, C57BL/6 mice
Protocol: For the experiments healthy age- and sex-matched (male, 8-12 weeks of age) C57BL/6 mice (Charles River) were used. Animal care and all experimental procedures were performed in strict accordance to the German and National Institutes of Health animal legislation guidelines and were approved by the local animal care and use committees.
(§1) Mice were divided into the following groups: 1) administration of saline daily for 6 days, sacrificed at day 7 (n=6). 2) administration of PTH (Bachem) daily for 6 consecutive days (80 μg per kg body weight per day, intraperitoneally), sacrificed at day 7 (n=6). 3) administration of PTH daily for 14 consecutive days, sacrificed at day 15 (n=6). 4) administration of G-CSF (Amgen Biologicals) daily for 5 consecutive days (200 μg per kg body weight per day, intraperitoneally), sacrificed at day 6 (n=6).
at day 6, 1 ml of peripheral blood was harvested from each mouse by aspirating the carotid artery. Bone marrow cells were obtained by flushing the tibias and femurs from the euthanized mice. Mononuclear cells were separated by density-gradient centrifugation using 1.077 g/mL Histopaque solution (Sigma Chemicals), purified and resuspended in phosphate-buffered saline (PBS) containing 1% bovine serum albumin. Cells were incubated for 40 minutes in the dark at 4° C. with following fluorescein-isothiocyanate (FITC), phycoerythrin (PE), and peridinin-chlorphyll-protein (PerCP) conjugated monoclonal antibodies: CD45-PerCP, C34-FITC, CD31-PE, Sca-1-PE and c-kit-PE (all from BD Pharmingen). Isotype-identical antibodies (BD Pharmingen) served as controls. Cells were analyzed by 3-color flow cytometry using a Coulter® Epics® XL-MCL™ flow cytometer (Beckman Coulter). Each analysis included 20000 events. The absolute number of antigen-positive cells per ml of whole blood was calculated by multiplying the percentage of antigen-positive cells with the total number of mononuclear cells per ml of blood detected by the conventional hematological cell analyzer. The number of lymphocytes together with the number of monocytes comprised the total number of mononuclear cells.

G-CSF = G-CSF serum level by ELISA after PTH; assay type: in vivo, C57BL/6 mice
Protocol: as §1
G-CSF and SCF serum levels were determined by ELISA (Mouse G-CSF and Mouse SCF, RayBiotech).

[2] = test system: BrdU and Ki67 positive cells; assay: Immunohistochemistry of cell proliferation (BrdU, Ki67) after MI, PTH treatment; assay type: in vivo, C57BL/6 mice
Protocol: After occlusion of the LAD, mice were divided into the following groups 1) subcutaneous administration of saline daily for 5 days, sacrificed at day 6 (n=10) and day 30 (n=15); 2) administration of rat PTH (1-34) daily for 5 and 14 consecutive days (80 μg/kg/d s.c., Bachem), sacrificed at day 6 (n=9) and day 30 (n=15); 3) sham operated animals sacrificed at day 30 (n=5), and not operated control animals receiving saline (n=6) sacrificed at day 6 and at day 30. All animals received BrdU ([…]) for 5 consecutive days. BrdU and cytokine treatment were started 12-24 hours after LAD occlusion.
At day 6 (n=10) and day 30 (n=10), hearts were excised. After fixation in 4% phosphate buffered formalin the hearts were cut transversally into 2 mm thick slices and embedded in paraffin. 4 μm thick sections were cut and mounted on positively charged glass slides. Standard histological procedures (hematoxilin/eosin and Masson trichrome) and immunostaining (see below) were performed.
For immunostaining mounted tissue sections were deparaffinized by rinsing 3×5 minutes in xylene followed by 2×5 minutes 100%, 2×5 minutes 96%, and 2×5 minutes 70% ethanol rinses. Endogenous peroxidases were quenched in 7.5% H2O2 in distilled water for 10 minutes. After rinsing in distilled water for 10 minutes and 2×5 minutes in TRIS-Buffer, pH 7.5, the slides were incubated at room temperature for 60 minutes with following primary antibodies: CD45 (rat anti-mouse, BD Pharmingen), ICAM-1 (goat anti-mouse, R&D), CD34 (rat anti-mouse, Linaris), Ki67 (goat anti-mouse, Santa Cruz) or BrdU (mouse monoclonal anti-BrdU, BD Pharmingen). Pre-treatment was performed for 30 minutes (microwave 750 W) using TRS 6 (Dako) for CD45, Glykol (biologo) for CD34, Retrievagen A (BD Pharmingen) for BrdU, and citrate buffer (10 mM, pH 6.0) for Ki67.
For detection of the immunoreaction Avidin-Biotinylated enzyme Comlex-Rat IgG, Avidin-Biotinylated enzyme Comlex-Goat IgG (both from Vector) or rabbit anti-goat IgG (DAKO) were used. Aminoethylcarbazol was used as chromogen (incubation 10 minutes). Thereafter, the slides were rinsed in running water and counterstained with hematoxilin Gill's Formula (Vector). Cover slides were mounted with Kaiser's glycerol gelatine. Doublestaining was performed for CD31 and Ki67 using an Avidin-Biotinylated enzyme Comlex-Goat IgG detection system and diaminobenzidine as chromogen and the APAAP-Rat system and chromogen red (all from Dako), respectively.
Quantitative assessments: a) granulation tissue: the number of BrdU and Ki76 positive nuclei were related to the total number of nuclei quantified in the granulation tissue. b) arterioles: only arterioles with high proliferative activity were enclosed.

[3] = test system: CD45/Sca-1 and CD45/CD34 positive stem cells; assay: PTH induced migration of CD45+ stem cells to the ischemic heart; assay type: in vivo, mice; conditions: 48 hours after myocardial ischemia

rat PTH (1-34)
increase of subpopulations of CD45+/CD34+ and CD45+/CD34- cells ([1]; PTH 80 μg/kg/d for 6 or 14 days, peripheral blood): 1.5- to 9.8 fold
mobilization of CD45+/CD34+ cells by PTH compared to G-CSF treatment ([1]; PTH 80 μg/kg/d vs G-CSF 200 μg/kg/d 5 days): 20-50%
subtypes of CD45+/CD34+ and CD45+/CD34- cells in peripheral blood ([1]; PTH day 6 and day 14, G-CSF day 6): significant increase
mobilization of stem cells which express c-kit ([1]; in comparison to a control): 5 fold
number of mobilized subtypes of CD45+/CD34+ cells, PTH compared with G-CSF ([1]; peripheral blood): significant lower number
mobilized CD45+/CD34-/c-kit+ cells, PTH compared with G-CSF ([1]; peripheral blood, p<0.05): 49-50%
increase of G-CSF serum value (G-CSF; PTH treated mice, ELISA): 2.8 fold
serum level of G-CSF (G-CSF; day 6 of PTH stimulation): 6035.5 ± 1318.4 pg/mL
BrdU positive cells within the granulation tissue ([2]; 6 days after MI): 72.1±2.4%
Ki67 and BrdU positive cells within the remote area ([2]; 6 days after MI): less than 1%
Ki67 positive cells within the granulation tissue ([2]; 6 days after MI): 34.8±4.8%
Ki67 positive endothelial cells associated with CD31 positive arterioles ([2]; compared to saline treated animals): high numbers
BrdU positive cells in the periinfarct region ([2]; day 30): 99.1±25.0 /mm^2
migration of CD45/Sca-1 and CD45/CD34 positive stem cells to the heart [3]: enhanced migration

Source: patent US8455435B2, “Remedies for ischemia” (Ludwig-Maximilians-Universitat Munchen, priority 2006, dated 2013)
